Measured values from the NIST ThermoML archive (doi:10.1021/je5010214).
± gives the expanded uncertainty stated by the source.

Conditions: Liquid, Vibrating tube method

CCCCCCC [heptane]
Conditions | mass density [kg/m3]
303.15 K, 19974 kPa | 693.813 ± 0.88
303.15 K, 21920 kPa | 695.403 ± 0.88
303.15 K, 24992 kPa | 697.736 ± 0.9
303.15 K, 31958 kPa | 702.727 ± 0.93
303.15 K, 32862 kPa | 703.514 ± 0.93
303.15 K, 33112 kPa | 703.9 ± 0.93
303.15 K, 34081 kPa | 704.468 ± 0.94
303.15 K, 34980 kPa | 705.109 ± 0.94
303.15 K, 37951 kPa | 707.216 ± 0.96
303.15 K, 39904 kPa | 708.418 ± 0.97
303.15 K, 42014 kPa | 709.635 ± 0.98
303.15 K, 44896 kPa | 711.236 ± 0.99
303.15 K, 47951 kPa | 713.224 ± 1
303.15 K, 50065 kPa | 714.711 ± 1
303.15 K, 52073 kPa | 715.915 ± 1
303.15 K, 55074 kPa | 717.452 ± 1.1
303.15 K, 57989 kPa | 719.654 ± 1.1
303.15 K, 59979 kPa | 720.537 ± 1.1
303.15 K, 62052 kPa | 721.855 ± 1.1
303.15 K, 64988 kPa | 723.925 ± 1.1
303.15 K, 66030 kPa | 724.328 ± 1.1
303.16 K, 2964.9 kPa | 678.337 ± 0.82
303.16 K, 7045.6 kPa | 682.343 ± 0.83
303.16 K, 8858.2 kPa | 683.448 ± 0.84
303.16 K, 10014 kPa | 684.334 ± 0.84
303.16 K, 18021 kPa | 692.198 ± 0.87
303.16 K, 27933 kPa | 699.906 ± 0.91
303.16 K, 29990 kPa | 701.007 ± 0.92
308.15 K, 105 kPa | 671.006 ± 0.81
308.15 K, 274.3 kPa | 671.143 ± 0.81
308.15 K, 494.1 kPa | 671.318 ± 0.81
308.15 K, 803.3 kPa | 671.687 ± 0.81
308.15 K, 1039.5 kPa | 672.093 ± 0.82
308.15 K, 1916.7 kPa | 672.909 ± 0.82
308.15 K, 2980.7 kPa | 674.097 ± 0.82
308.15 K, 4990.2 kPa | 676.132 ± 0.82
308.15 K, 6964.9 kPa | 678.143 ± 0.83
308.15 K, 8864.3 kPa | 679.887 ± 0.84
308.15 K, 9863.1 kPa | 680.761 ± 0.84
308.15 K, 12009 kPa | 682.857 ± 0.85
308.15 K, 17850 kPa | 687.815 ± 0.87
308.15 K, 19930 kPa | 689.488 ± 0.88
308.15 K, 21988 kPa | 691.177 ± 0.89
308.15 K, 25012 kPa | 693.658 ± 0.9
308.15 K, 27955 kPa | 695.718 ± 0.91
308.15 K, 29906 kPa | 696.905 ± 0.92
308.15 K, 31929 kPa | 698.302 ± 0.93
308.15 K, 32886 kPa | 699.002 ± 0.94
308.15 K, 32941 kPa | 698.96 ± 0.94
308.15 K, 34011 kPa | 700.438 ± 0.94
308.15 K, 37971 kPa | 703.176 ± 0.96
308.15 K, 40011 kPa | 704.309 ± 0.97
308.15 K, 41998 kPa | 705.614 ± 0.98
308.15 K, 45017 kPa | 707.854 ± 1
308.15 K, 48033 kPa | 709.906 ± 1
308.15 K, 50044 kPa | 711.265 ± 1
308.15 K, 51977 kPa | 712.584 ± 1
308.15 K, 54982 kPa | 714.563 ± 1.1
308.15 K, 58009 kPa | 716.265 ± 1.1
308.15 K, 60030 kPa | 717.688 ± 1.1
308.15 K, 61985 kPa | 718.959 ± 1.1
308.15 K, 64980 kPa | 720.569 ± 1.1
308.16 K, 15069 kPa | 685.368 ± 0.86
308.16 K, 34949 kPa | 701.078 ± 0.95
308.16 K, 66088 kPa | 721.543 ± 1.1
313.15 K, 100.8 kPa | 666.87 ± 0.81
313.15 K, 316 kPa | 667.185 ± 0.81
313.15 K, 569.6 kPa | 667.234 ± 0.81
313.15 K, 1088.8 kPa | 668.002 ± 0.82
313.15 K, 2109.7 kPa | 669.053 ± 0.82
313.15 K, 3137 kPa | 670.192 ± 0.82
313.15 K, 5111.8 kPa | 672.198 ± 0.83
313.15 K, 6921.8 kPa | 674.169 ± 0.83
313.15 K, 9210.7 kPa | 676.379 ± 0.84
313.15 K, 10209 kPa | 677.309 ± 0.84
313.15 K, 12020 kPa | 679.079 ± 0.85
313.15 K, 15059 kPa | 681.665 ± 0.86
313.15 K, 17921 kPa | 684.308 ± 0.87
313.15 K, 19932 kPa | 686.1 ± 0.88
313.15 K, 22058 kPa | 687.733 ± 0.89
313.15 K, 24862 kPa | 690.068 ± 0.9
313.15 K, 27869 kPa | 692.385 ± 0.91
313.15 K, 29957 kPa | 693.806 ± 0.92
313.15 K, 32107 kPa | 695.43 ± 0.93
313.15 K, 32980 kPa | 696.141 ± 0.94
313.15 K, 33002 kPa | 696.147 ± 0.94
313.15 K, 33981 kPa | 697.086 ± 0.94
313.15 K, 35045 kPa | 697.948 ± 0.95
313.15 K, 38127 kPa | 700.098 ± 0.96
313.15 K, 41978 kPa | 702.778 ± 0.99
313.15 K, 44946 kPa | 704.758 ± 1
313.15 K, 47880 kPa | 706.851 ± 1
313.15 K, 52097 kPa | 709.812 ± 1
313.15 K, 54924 kPa | 711.549 ± 1.1
313.15 K, 58082 kPa | 713.474 ± 1.1
313.15 K, 59932 kPa | 714.707 ± 1.1
313.15 K, 62004 kPa | 716.103 ± 1.1
313.15 K, 64954 kPa | 717.814 ± 1.1
313.15 K, 66113 kPa | 718.367 ± 1.1
313.16 K, 860.7 kPa | 667.671 ± 0.82
313.16 K, 39997 kPa | 701.327 ± 0.97
313.16 K, 50021 kPa | 708.33 ± 1
318.15 K, 100.7 kPa | 662.812 ± 0.81
318.15 K, 336.3 kPa | 663.228 ± 0.81
318.15 K, 1105.7 kPa | 663.94 ± 0.82
318.15 K, 1929.1 kPa | 664.905 ± 0.82
318.15 K, 2933.2 kPa | 665.972 ± 0.82
318.15 K, 8989 kPa | 672.331 ± 0.84
318.15 K, 10074 kPa | 673.533 ± 0.84
318.15 K, 11896 kPa | 675.253 ± 0.85
318.15 K, 18102 kPa | 681.046 ± 0.87
318.15 K, 19985 kPa | 682.727 ± 0.88
318.15 K, 22094 kPa | 684.679 ± 0.89
318.15 K, 29998 kPa | 691.196 ± 0.93
318.15 K, 33016 kPa | 693.259 ± 0.94
318.15 K, 33180 kPa | 693.331 ± 0.94
318.15 K, 37838 kPa | 697.046 ± 0.97
318.15 K, 40092 kPa | 698.439 ± 0.98
318.15 K, 44884 kPa | 701.561 ± 1
318.15 K, 47944 kPa | 703.663 ± 1
318.15 K, 54944 kPa | 708.215 ± 1.1
318.15 K, 57972 kPa | 710.506 ± 1.1
318.15 K, 59922 kPa | 711.605 ± 1.1
318.15 K, 65022 kPa | 714.898 ± 1.1
318.15 K, 66028 kPa | 715.438 ± 1.1
318.16 K, 590.9 kPa | 663.443 ± 0.81
318.16 K, 891 kPa | 663.766 ± 0.82
318.16 K, 5020.8 kPa | 668.355 ± 0.83
318.16 K, 6926.7 kPa | 670.309 ± 0.83
318.16 K, 14800 kPa | 678.075 ± 0.86
318.16 K, 24873 kPa | 686.865 ± 0.9
318.16 K, 27909 kPa | 689.38 ± 0.92
318.16 K, 31957 kPa | 692.414 ± 0.94
318.16 K, 34110 kPa | 694.119 ± 0.95
318.16 K, 35048 kPa | 694.934 ± 0.95
318.16 K, 41996 kPa | 699.6 ± 0.99
318.16 K, 49950 kPa | 705.2 ± 1
318.16 K, 52037 kPa | 706.412 ± 1
318.16 K, 61930 kPa | 712.85 ± 1.1
323.15 K, 102.3 kPa | 658.378 ± 0.81
323.15 K, 296.1 kPa | 658.71 ± 0.81
323.15 K, 528.4 kPa | 658.782 ± 0.81
323.15 K, 994.2 kPa | 659.429 ± 0.82
323.15 K, 2006.9 kPa | 660.61 ± 0.82
323.15 K, 2966.6 kPa | 661.806 ± 0.82
323.15 K, 4996.2 kPa | 663.968 ± 0.83
323.15 K, 7042.1 kPa | 666.276 ± 0.83
323.15 K, 9029.9 kPa | 667.858 ± 0.84
323.15 K, 10090 kPa | 669.742 ± 0.84
323.15 K, 11914 kPa | 670.973 ± 0.85
323.15 K, 15111 kPa | 674.373 ± 0.86
323.15 K, 17981 kPa | 677.251 ± 0.87
323.15 K, 20038 kPa | 678.71 ± 0.88
323.15 K, 21995 kPa | 680.737 ± 0.89
323.15 K, 24993 kPa | 683.213 ± 0.9
323.15 K, 32079 kPa | 689.177 ± 0.94
323.15 K, 33103 kPa | 689.972 ± 0.94
